Laboratory results taken from US8017644B2, “2-arylindole derivatives as nPGES-1 inhibitors” (Aziende Chimiche Riunite Angelini Francesco A.C.R.A.F. …, priority 2006, dated 2011).

Key:
[1] = system: acetic acid-induced stretching in mice; assay: Acetic acid-induced stretching in mice (inflammatory pain); type: in vivo; details: female CD-1 mice; for No. of stretches: 20 minutes after acetic acid, vehicle 52; for % inhibition (stretches): vs vehicle (MTC)
Procedure: The test compound was evaluated in the model of acetic acid-induced stretching in mice (Stock J. L. et al., J Clin Inv 2001, 107: 325-331). This test makes it possible to evaluate the antinociceptive activity of the compounds of the invention in a model of inflammatory pain.
Female CD-1 mice weighing 25-30 g were used for the test. The animals were treated intraperitoneally with the test compound (0.1-10 mg/kg) suspended in methylcellulose (MTC). The control animals were treated with the vehicle alone (MTC) via the same route.
30 minutes after the treatment, the animals received an intraperitoneal injection of acetic acid (0.7 v/v in physiological solution, 16 μl/g of body weight) in order to induce inflammatory pain and to check the effects of the test compound on the nociceptive response.
Immediately after the administration of acetic acid and for the following 20 minutes, the number of stretches, which represents the parameter for evaluation of the nociceptive response, was measured.

[2] = system: production of PGE2 in U-937 cells (cPGES); assay: Inhibition of basal PGE2 production in U-937 cells (selectivity between isoforms of PGES); type: cell-based; details: Homo sapiens, basal conditions; for inhibition at 10 µM: compound at 10 μM
Source text: The test used makes it possible to evaluate the capacity of the compounds of the invention to inhibit the production of PGE2 in a human lymphoma cell line U-937 that preferentially expresses an enzymatic isoform (cPGES), which is responsible for the production of PGE2 under basal conditions, in the absence of pro-inflammatory stimuli. This enzymatic form is different from the one predominantly expressed in the A549 cells (mPGES-1) after a pro-inflammatory stimulus.
The absence of inhibitory activity on PGE2 in this cell model ensures the selectivity of the compound compared with the enzymatic form responsible for the production of PGE2 in the presence of inflammatory stimuli.
The reference compound used was indomethacin at a concentration of 10 nM.

[3] = system: production of PGE2 in A549 cells (mPGES-1); assay: Inhibition of PGE2 production in IL-1β-stimulated A549 cells (EIA); type: cell-based; details: Homo sapiens; for IC50: IL-1β-stimulated, read-out: pIC50 PGE2 (converted); for inhibition at 10 µM: compound at 10 μm
Source text: (§1) The test used makes it possible to evaluate the inhibitory capacity of the test compounds on the production of PGE2 and the selectivity relative to the production of PGF2α. The human pulmonary adenocarcinoma cell line A549 was used, which is particularly sensitive to stimulation with proinflammatory cytokines, for instance IL-1β, and, in response to this stimulation, is particularly active in the production and release of two prostanoids: PGE2 and PGF2α (Thoren S. Jakobsson P-J, 2000).
(§2) The cells were stimulated with IL-1β (10 ng/ml) and simultaneously treated with the test compound for 22 hours in a suitable culture medium (DMEM—Dulbecco's Modified Eagles Medium) enriched with 5% fetal calf serum and L-glutamine (4 mM final) in an incubator at 37° C. and with a CO2 concentration of 5%.
(§3) At the end of the incubation, the amount of PGE2 and PGF2α, produced and released into the supernatant were assayed using an EIA kit (produced and sold by Cayman Chemicals, Ann Arbor, Mich., USA).
(§4) The comparative compound used was indomethacin at a concentration of 10 nM (Sigma-Aldrich), which is a non-steroidal anti-inflammatory drug that inhibits in equal measure both PGE2 and PGF2α.
(§5) For illustrative purposes, Table 3 collates the pIC50 values of a number of compounds of the invention, where pIC50 represents the negative logarithm of the IC50, which, in turn, represents the concentration of compound that inhibits the production of PGE2 or PGF2α by 50% relative to cells that are stimulated but not treated with the same compound.

[4] = system: production of PGF2α in A549 cells; assay: Inhibition of PGF2α production in IL-1β-stimulated A549 cells (EIA), selectivity; type: cell-based; details: Homo sapiens; for inhibition at 10 µM: compound at 10 μm; for IC50: IL-1β-stimulated, read-out: pIC50 PGF2α (converted)
Source text: as §1, §2, §3, §4, §5

[5] = indomethacin at 10 nM, IL-1β 10 ng/ml, 22 hours

Row | IC50 [3] [nM] | Compound | inhibition at 10 µM [2] [%] | inhibition at 10 µM ([3]; IL-1β 10 ng/ml, 22 hours) [%] | inhibition at 10 µM ([4]; IL-1β 10 ng/ml, 22 hours) [%] | further results
1 | 2000 | CCn1c(-c2ccccc2)cc2cc(NC(=O)c3ccccc3Cl)ccc21 [Compound 2] | < 20 | 76 | < 20 | No. of stretches ([1]; 0.1 mg/kg intraperitoneally): 38; % inhibition (stretches) ([1]; 0.1 mg/kg intraperitoneally): 27%; No. of stretches ([1]; 1 mg/kg intraperitoneally): 36; % inhibition (stretches) ([1]; 1 mg/kg intraperitoneally): 31%; No. of stretches ([1]; 10 mg/kg intraperitoneally): 25; % inhibition (stretches) ([1]; 10 mg/kg intraperitoneally): 52%
2 | – | CCOc1ccc(-c2cc3cc(NC(=O)c4ccccc4Cl)ccc3n2CC)cc1 [Compound 21] | – | 66 | < 20 | –
3 | – | CCn1c(-c2cccc3ccccc23)cc2cc(NC(=O)c3ccccc3Cl)ccc21 [Compound 24] | – | 79 | < 20 | –
4 | – | Cn1c(-c2ccccc2)cc2cc(NC(=O)c3ccccc3Cl)ccc21 [Compound 1] | – | 63 | < 20 | –
5 | – | CCn1c(-c2ccc(OC)cc2)cc2cc(NC(=O)c3ccccc3Cl)ccc21 [Compound 30] | – | 75 | < 20 | –
6 | 5.01 | COc1ccc2c(c1)c(CC(=O)O)c(C)n2C(=O)c1ccc(Cl)cc1 [Indomethacin, indomethacin, reference compound] | – | – | – | inhibition at 0.01 µM ([2]; indomethacin at 10 nM): 78%; inhibition at 0.01 µM [3, 5]: 100%; IC50 [4]: 2.51 nM; inhibition at 0.01 µM [4, 5]: 100%
7 | – | CCn1c(-c2ccc(OCc3ccccc3)cc2)cc2cc(NC(=O)c3ccccc3Cl)ccc21 [Compound 22] | – | 79 | < 20 | –
8 | – | CCn1c(-c2ccccc2)c(C)c2cc(NC(=O)c3ccccc3Cl)ccc21 [Compound 7] | – | 90 | 39 | –
9 | 794 | CCn1c(-c2ccccc2)cc2cc(NC(=O)c3cc(Cl)ccc3Cl)ccc21 [Compound 13] | 30 | 100 | 36 | –
10 | 1260 | CCn1c(-c2ccccc2)cc2cc(NC(=O)c3ccccc3C(F)(F)F)ccc21 [Compound 9] | < 20 | 100 | < 20 | IC50 [4]: 50100 nM
11 | 2000 | CCn1c(-c2ccccc2)cc2cc(NC(=O)c3c(Cl)cccc3Cl)ccc21 [Compound 10] | 22 | 76 | < 20 | IC50 [4]: > 100000 nM
12 | – | CCn1c(-c2ccccc2)cc2cc(NC(=O)c3cc([N+](=O)[O-])ccc3Cl)ccc21 [Compound 12] | – | 75 | < 20 | –
13 | 2510 | CCn1c(-c2ccccc2C)cc2cc(NC(=O)c3ccccc3Cl)ccc21 [Compound 18] | < 20 | 66 | < 20 | –
14 | – | CCn1c(-c2ccccc2F)cc2cc(NC(=O)c3ccccc3Cl)ccc21 [Compound 4] | – | 72 | < 20 | –
15 | – | CCn1c(-c2cccc(Cl)c2C)cc2cc(NC(=O)c3ccccc3Cl)ccc21 [Compound 28] | – | 65 | < 20 | –
16 | 1580 | CCn1c(-c2ccc(F)cc2)cc2cc(NC(=O)c3ccccc3Cl)ccc21 [Compound 6] | < 20 | 82 | < 20 | –
17 | – | CCn1c(-c2ccccc2)cc2cc(NC(=O)c3ccccc3[N+](=O)[O-])ccc21 [Compound 16] | – | 74 | < 20 | –
18 | – | CC(C)n1c(-c2ccccc2)cc2cc(NC(=O)c3ccccc3Cl)ccc21 [Compound 3] | – | 91 | 34 | –
19 | – | CCn1c(-c2ccc(Cl)c(C)c2)cc2cc(NC(=O)c3ccccc3Cl)ccc21 [Compound 25] | – | 89 | < 20 | –
20 | 1000 | CCn1c(-c2cccc(C)c2)cc2cc(NC(=O)c3ccccc3Cl)ccc21 [Compound 19] | < 20 | 87 | 43 | IC50 [4]: 100000 nM
21 | – | CCn1c(-c2ccc(C)c(C)c2)cc2cc(NC(=O)c3ccccc3Cl)ccc21 [Compound 29] | – | 91 | < 20 | –
22 | 3160 | CCn1c(-c2ccc(C)cc2)cc2cc(NC(=O)c3ccccc3Cl)ccc21 [Compound 20] | < 20 | 75 | < 20 | IC50 [4]: > 100000 nM
23 | – | CCn1c(-c2cccc(F)c2)cc2cc(NC(=O)c3ccccc3Cl)ccc21 [Compound 5] | – | 91 | 36 | –
